Entries after “also recorded” stand apart in the source; their conditions may differ.
Assays:
NO synthase = experiment: Cuff single pulse waveform after endothelial stimulation with NO synthase blocked; format: in vivo, human; conditions: cuff inflated to 70 mmHg, FIG. 3
Description: Both the amplitude and slope of the rising edge of the pulse increase markedly after endothelial stimulation.
In an artery with intact endothelial function, both pulse height (maximal cross-sectional arterial area) and compliance (maximum slope of the rising edge) increase markedly over baseline. […] FIG. 4 illustrates how a five minute cuff occlusion and the ensuring reactive hyperemia lead to major increases in area change per pulse and the maximum derivative of the area per pulse. Both metrics return to baseline levels after 20 minutes. FIG. 5 confirms the repeatability of the protocol by illustrating the effects of a series of two cuff occlusion periods. We see from FIG. 6 that only a small slow drift in the measured quantities occurs when no reactive hyperemic stimulus is applied.
A stimulus is then applied to the subject. Any of a number of stimuli expected to alter endothelial function are contemplated. Such stimuli include, for example, occlusion of blood flow, and/or application of one or more drugs to the subject. Illustrative drugs include, for example, drugs that act as NO agonists (e.g. acetylcholine), β2-adrenergic agonists such as albuterol, acoustic/mechanical tissue vibration, transcutaneous low frequency ultrasound (see, e.g., Iida et al. (2006) J. Amer. Coll. Cardiol., 48(3): 532-537), and the like. […]

human subjects = experiment: Blood pressure cuff measurement of pulse amplitude (arterial area) and compliance response to sublingual nitroglycerin; format: in vivo; conditions: 0.4 mg sublingual NG, FIG. 10, all cases where NG was administered
Description: We contend that such studies are unnecessary in order to make a determination that a method is effective in assessing endothelial function. Physical methods for arterial EF evaluation typically measure changes in the material properties of the artery. […] A major advantage of this method is that response to NG is intact even in individuals with endothelial dysfunction, so there is no need to perform a correlation analysis between two measurements.
We examined three individuals in the age-range 28-38. All subjects had Framingham risk scores of 1% or less, and had no history of cardiovascular disease. Each individual was assessed at least three times before and after RH induced by five minutes of suprasystolic cuff occlusion. […] Sensitivity to a 0.4 mg dose of sublingual NG was assessed three times in two individuals.
Sensitivity to a 0.4 mg dose of sublingual NG was assessed three times in two individuals.
We studied a single quantity relating to the recorded pressure data: the pulse amplitude, which we posit is proportional to the arterial area. During the post stimulus interval, pressure data from the cuff were recorded approximately every 80 seconds, for a period of 30 seconds. During each recording interval, the cuff was inflated to 70 mmHg, which was always below the measured diastolic pressure of the subject. […]

COC(=O)[C@@H](N)CCCNC(=N)N[N+](=O)[O-] [L-NAME] was tested, and the “effect on increase of pulse amplitude (height) and slope of rising edge after endothelial stimulation” value (NO synthase) was “greatly attenuates this response; also recorded: greatly attenuated”.

For O=[N+]([O-])OCC(CO[N+](=O)[O-])O[N+](=O)[O-] [NG, nitroglycerin], the “increase in relative change in area” value (human subjects) was “more than 30%” and the “increase in relative change in compliance” value (human subjects) was “more than 30%”.
